# Read-outs that look alike come from different tables or passages of the source.
# Key:
# turkey P2Y1 = biological target: T1, turkey P2Y1 (Meleagris gallopavo, UniProt P49652); assay: Intracellular calcium measurement ([Ca2+]i, fura-2) in 1321N1 astrocytoma cells; assay type: cell-based
# T1 construct: expressed in transfected cells
# Protocol: Human 1321N1 astrocytoma cells stably expressing the turkey P2Y1, human P2Y2, human P2Y4 or rat P2Y6 were grown in Dulbecco's modified Eagle's medium containing 5% (v/v) fetal bovine serum, 100 units/ml penicillin, 100 μg/ml streptomycin and 500 μg/ml Geneticin (G-418, Life Technologies, Inc). Changes in the intracellular free calcium concentration, [Ca^2+]i were detected by dual-excitation spectrofluorometric analysis of cell suspensions loaded with fura-2, as previously described (Garrad et al., 1998; Grynkiewicz et al., 1985). Cells were assayed in 10 mM Hepes-buffered saline (pH 7.4) containing 1 mM CaCl2 and 1 mM MgCl2. The cells were pelleted in a microfuge and resuspended in 2 ml of buffer. Concentration-response data were analyzed with the Prism curve fitting program (GraphPAD Software, San Diego, Calif.). Three experiments were conducted on separate days for each P2Y receptor subtype.
# The activities of compounds 2, 4B, 17, 18, 19A, 21 (isomers A and B) were examined at the G protein-coupled P2YRs, P2Y1, P2Y2, P2Y4 and P2Y6 expressed in human 1321N1 astrocytoma cells, based on intracellular calcium measurements, as described in Experimental above. In particular, the activity of compound 2, 4B and 19 was examined at P2Y1R, P2Y2R, P2Y4R and P2Y6R, and the activity of compounds 17, 18 and 21 was examined at P2Y1R only. The experiments were conducted by Prof. Gary A. Weisman from Columbia-Missouri University, Columbia, Mo., USA.
# [1] = Chemical stability at pH 1.4 and 37° C. evaluated by HPLC; assay type: physicochemical; settings: pH 1.4, 37° C., after 19 h
# Protocol: The stability of 3 (isomer B) in the appropriate buffer solution (0.2 M HCl/KCl, pH=1.4) at 37° C. was evaluated by HPLC-electrospray ionization (ESI)MS for 5 days at 7-17 h intervals, and its hydrolysis rate, based on the HPLC integration changes of the 3B peak with time, was fit to a pseudo first-order exponential decay rate equation, as shown in FIGS. 2A-2B. In addition to 3B, degradation products 6, 7 and 8 were identified in the hydrolysis mixture, as depicted in Scheme 3. For instance, after 19 h, 50% of 3B was degraded giving rise to 37% of AMP-α-B and AMP-α-H (6 and 7, respectively. Both appear at the same retention time; however, MS enabled the identification of these compounds) and 13% adenosine (FIG. 2A). […]
# The stability of 4 (isomer B) in the appropriate buffer solution (pH=1.4) at 37° C. was evaluated by HPLC to monitor possible dephosphorylation products. […] The solution was kept in an oil bath at 37° C. and its composition was analyzed by HPLC-MS, using a Gemini analytic column (5u C-18 110A, 150×4.60 mm) and gradient elution with Solvent System I (see Example 1) at 89:11 A:B for 15 min and then 82:18 to 74:26 A:B for 20 min at a flow rate of 1 ml/min. […] The hydrolysis rate of 4 was determined by measuring the change in the integration of the HPLC peaks of the degradation products, 6, 7 and 8, with time.
# [2] = Stability in human blood serum, Method A; assay type: in vitro ADME; settings: human blood serum and RPMI-1640, 37° C.
# Protocol: Preparation of the Human Blood Serum: Blood Taken from Healthy Volunteers was obtained from a blood bank (Tel-Hashomer hospital, Israel), stored for 12 h at 4° C. and centrifuged in plastic tubes at 1500 g for 15 min at room temperature. The serum was separated and stored at −80° C.
# The assay mixture, containing a 40 mM nucleotide derivative solution in deionized water (4.5 μl), human blood serum (180 μl) and RPMI-1640 (540 μl), was incubated at 37° C. for 1, 4, 8, 16, 24, 48, 72 and 96 h. The samples were then treated with 0.6 M of hydrochloric acid (430 μl), centrifuged for 2 min (13,000 g, 4° C.), neutralized by addition of 4 M of KOH, centrifuged for 2 min (13,000 g, 4° C.) and freeze-dried. The stability of the nucleotide was evaluated by HPLC for monitoring possible dephosphorylation products. The mixture was separated on a Gemini analytic column (5u C-18 110A, 150×4.60 mm) with gradient elution [0.01 M KH2PO4 pH=4.5 (A)/acetonitrile (B), 100:0→60:40, A:B, 20 min for 2, 3A and 3B; 100:0→95:5, A:B, 10 min for ATP] and flow rate of 1 ml/min. The hydrolysis rate was determined by measuring the change in the integration of the respective HPLC peaks with time.
# [3] = biological target: T2, calf intestine alkaline phosphatase (Bos taurus, UniProt P19111); assay: Enzymatic stability to alkaline phosphatase; assay type: in vitro ADME; settings: 37° C., as in Example 6
# T2 construct: purchased Fermentas Inc., Glen Burnie, Md
# Protocol: Enzyme activity was measured by the release of p-nitrophenol from the nucleotide derivatives using a UV-vis spectrophotometer at 405 nm. Relative activity and resistance of nucleotides to enzymatic hydrolysis were determined at 37° C. Briefly, 32.5 μl of nucleotide derivative (77 μg/ml in 0.1 M Tris-HCl and 0.1 M MgCl2, pH 7.5) and 6 μl of deionized water were incubated with calf intestine alkaline phosphatase (Fermentas Inc., Glen Burnie, Md., 1 unit/μl, 6.25 μl at 37° C. final pH=9.8). After 30 min, the reaction was stopped by incubation at 80° C. for 30 min. The stability of the nucleotide derivative was evaluated by HPLC to monitor possible dephosphorylation products. The mixture was separated on a Gemini analytic column (5u C-18 110A, 150×4.60 mm) using gradient elution with Solvent System I (see Example 1) at 90:10 to 70:30 A:B for 3A and 3B, and 82:18 to 50:50 for 4A, 4B and 2 over 20 min and at a flow rate of 1 ml/min.
# T1 sequence (P49652 whole entry): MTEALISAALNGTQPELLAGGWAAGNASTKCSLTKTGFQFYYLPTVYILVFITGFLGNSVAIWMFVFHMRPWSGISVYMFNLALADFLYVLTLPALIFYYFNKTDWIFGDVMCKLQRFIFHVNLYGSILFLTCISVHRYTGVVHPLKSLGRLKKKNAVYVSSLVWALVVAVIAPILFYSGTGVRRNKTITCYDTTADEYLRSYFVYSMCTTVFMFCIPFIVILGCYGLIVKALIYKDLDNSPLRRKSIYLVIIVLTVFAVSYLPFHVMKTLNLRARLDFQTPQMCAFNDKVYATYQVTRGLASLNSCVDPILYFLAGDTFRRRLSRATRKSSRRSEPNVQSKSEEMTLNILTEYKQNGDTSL
# T2 sequence (P19111 20-506): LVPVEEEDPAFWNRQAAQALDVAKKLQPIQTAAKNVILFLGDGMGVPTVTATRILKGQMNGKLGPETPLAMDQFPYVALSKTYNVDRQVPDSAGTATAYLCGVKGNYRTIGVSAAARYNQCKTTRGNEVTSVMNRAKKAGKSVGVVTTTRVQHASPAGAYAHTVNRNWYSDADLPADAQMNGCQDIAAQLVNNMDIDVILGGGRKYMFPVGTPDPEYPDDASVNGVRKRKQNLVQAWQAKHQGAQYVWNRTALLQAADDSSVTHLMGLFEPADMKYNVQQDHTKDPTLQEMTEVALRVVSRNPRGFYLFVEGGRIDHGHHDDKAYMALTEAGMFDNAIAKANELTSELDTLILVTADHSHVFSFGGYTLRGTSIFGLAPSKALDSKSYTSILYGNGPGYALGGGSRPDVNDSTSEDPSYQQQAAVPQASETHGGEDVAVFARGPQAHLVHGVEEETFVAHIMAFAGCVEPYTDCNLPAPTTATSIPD
structure (smiles),measurement,setting,value
"B[P@](=O)(OC[C@H]1O[C@@H](n2cnc3c(N)ncnc32)[C@H](O)[C@@H]1O)OP(=O)(O)CP(=O)(O)O (single isomer, unassigned) [Compound 3B, Adenosine-β,γ-CH2-5′-O-(1-boranotriphosphate)]","activity at P2Y1R, in words",turkey P2Y1,practically inactive
same,activities at the P2YRs tested,"turkey P2Y1; P2Y1, P2Y2, P2Y4 and P2Y6 tested",insignificant activities
same,fraction degraded,[1],50%
same,half-life in human blood serum,[2],47.1 h
"Nc1ncnc2c1ncn2[C@@H]1O[C@H](COP(=O)(O)OP(=O)(O)O)[C@@H](O)[C@H]1O [ADP, reference compound]",t1/2 to alkaline phosphatase,[3],about 4 h
same,half-life in human blood serum,,about 2 h

# — US20100256086A1, “NON-HYDROLYZABLE NUCLEOSIDE DI- OR TRI-PHOSPHATE DERIVATIVES AND USES THEREOF” (priority 2007, published 2010)
